The term GI50 denotes the concentration at which growth is held to half of that of the control. Low readings indicate more potent growth inhibition, high ones less potent growth inhibition.

Molecules are shown by their SMILES. Bounds are passed on as bounds.

For one assay, the system named is HeLa. Kind of assay: Antiproliferative activity against human HeLa cells by SRB assay. It counts as functional. (In general: In SRB staining, fixed cells bind dye roughly in proportion to their protein.)
The next assay concerns HOS. As to the kind of experiment: Antiproliferative activity against human HOS cells by SRB assay. The assay is classed as functional.

Take `C=CC[C@@H]1O[C@H](COCc2ccccc2)[C@@H](OCc2ccccc2)[C@H](OCc2ccccc2)[C@H]1OC(C)=O`: the GI50 is over 50 µM in the assay with HeLa and 11 µM in the assay with HOS.
Taken in the same sequence, the figures for `OC[C@H]1O[C@@H](Cc2ccccc2)[C@H](O)[C@@H](OCc2ccccc2)[C@@H]1OCc1ccccc1` were 38 µM and 31.6 µM.
Taken in the same sequence, the figures for `CCC[C@@H]1O[C@H](CO)[C@@H](O)[C@H](O)[C@H]1O` were over 50 µM and over 50 µM.
Taken in the same sequence, the figures for `ClC1(Cl)[C@@H]2[C@@H](OCc3ccccc3)[C@H](OCc3ccccc3)[C@@H](COCc3ccccc3)O[C@@H]21` were over 50 µM and 1.6 µM.
Regarding `O=C1[C@H](Cc2ccccc2)O[C@H](COCc2ccccc2)[C@@H](OCc2ccccc2)[C@@H]1OCc1ccccc1`, the GI50 in the assay with HeLa and in the assay on HOS was over 50 µM each time.
In the case of `c1ccc(COC[C@H]2O[C@@H](Cc3ccccc3)[C@H](OCc3ccccc3)[C@@H](OCc3ccccc3)[C@@H]2OCc2ccccc2)cc1`, the GI50 in the assay with HeLa and in the assay on HOS was over 50 µM in each case.
On to `CCC[C@H]1O[C@H](COCc2ccccc2)[C@@H](OCc2ccccc2)[C@H](OCc2ccccc2)[C@H]1O`, for which the GI50 in the assay on HeLa came to 17.4 µM; in the assay on HOS it was 23.6 µM.
Taken in the same sequence, the figures for `c1ccc(COC[C@H]2OCC[C@@H](OCc3ccccc3)[C@@H]2OCc2ccccc2)cc1` were 33.3 µM and 22.2 µM.
Taken in the same sequence, the figures for `O[C@H]1CO[C@H](COCc2ccccc2)[C@@H](OCc2ccccc2)[C@@H]1OCc1ccccc1` were over 50 µM and 37.9 µM.
Taken in the same sequence, the figures for `O[C@@H]1[C@@H](OCc2ccccc2)[C@H](OCc2ccccc2)[C@@H](COCc2ccccc2)O[C@H]1Cc1ccccc1` were 17.4 µM and 29.2 µM.
With `CCCCCCCCCCCCCCCOC[C@H]1O[C@@H](CCC)[C@H](O)[C@@H](OCCCCCCCCCCCCCCC)[C@@H]1OCCCCCCCCCCCCCCC`, the 50% growth inhibitory concentration (GI50) in the assay with HeLa and with HOS was over 50 µM in each case.
As for `OC[C@@H]1O[C@H](COCc2ccccc2)[C@@H](OCc2ccccc2)[C@H](OCc2ccccc2)[C@H]1O`, the GI50 with HeLa stood at 25.8 µM; with HOS it was 27.3 µM.
Taken in the same sequence, the figures for `O[C@@H]1[C@@H](OCc2ccccc2)[C@H](OCc2ccccc2)[C@@H](COCc2ccccc2)O[C@H]1CC1CC1` were over 50 µM and over 50 µM.
Take `CCCC[C@@H]1O[C@H](COCc2ccccc2)[C@@H](OCc2ccccc2)[C@H](OCc2ccccc2)[C@H]1O`: the values for the GI50 in the assay with HeLa and with HOS were over 50 µM and 40.1 µM, respectively.
Taken in the same sequence, the figures for `CC(=O)O[C@@H]1[C@@H](OCc2ccccc2)[C@H](OCc2ccccc2)[C@@H](COCc2ccccc2)O[C@@H]1CC(C)C` were over 50 µM and over 50 µM.
Taken in the same sequence, the figures for `c1ccc(COC[C@H]2O[C@@H]3C[C@@H]3[C@@H](OCc3ccccc3)[C@@H]2OCc2ccccc2)cc1` were over 50 µM and over 50 µM.
Taken in the same sequence, the figures for `CCC[C@@H]1O[C@H](COCc2ccc3ccccc3c2)[C@@H](OCc2ccc3ccccc3c2)[C@H](OCc2ccc3ccccc3c2)[C@H]1O` were over 50 µM and over 50 µM.
Take `OCCC[C@@H]1O[C@H](COCc2ccccc2)[C@@H](OCc2ccccc2)[C@H](OCc2ccccc2)[C@H]1O`: the GI50 in the assay on HeLa and in the assay on HOS was over 50 µM throughout.
Take `CCCCCCCCCCCCCCCOC[C@H]1O[C@H](CCC)[C@H](O)[C@@H](OCCCCCCCCCCCCCCC)[C@@H]1OCCCCCCCCCCCCCCC`: the figures for the GI50 in the assay on HeLa and in the assay with HOS were 28.7 µM and 29.9 µM, respectively.
Taken in the same sequence, the figures for `O[C@@H]1[C@@H](O)[C@H](Cc2ccccc2)O[C@H](COCc2ccccc2)[C@H]1OCc1ccccc1` were 47.9 µM and 33.5 µM.
Taken in the same sequence, the figures for `CCC[C@@H]1O[C@H](COCc2ccccc2)[C@@H](OCc2ccccc2)[C@H](OCc2ccccc2)[C@H]1O` were 18.9 µM and 38.6 µM.
In the case of `CC[C@H]1O[C@H](COCc2ccccc2)[C@@H](OCc2ccccc2)[C@H](OCc2ccccc2)[C@H]1O`, the GI50 with HeLa and in the assay with HOS was over 50 µM each time.
On to `C=CC[C@@H]1O[C@H](COCc2ccccc2)[C@@H](OCc2ccccc2)[C@H](OCc2ccccc2)C1=O`, for which the GI50 with HeLa was over 50 µM; with HOS, 7.6 µM.
As to `CCC[C@@H]1O[C@H](COCc2ccc3ccccc3c2)[C@@H](OCc2ccc3ccccc3c2)[C@H](OCc2ccc3ccccc3c2)[C@H]1OC(C)=O`, the GI50 in the assay on HeLa and in the assay with HOS was over 50 µM in each case.
Take `CC(=O)O[C@@H]1[C@@H](OCc2ccccc2)[C@H](OCc2ccccc2)[C@@H](COCc2ccccc2)O[C@H]1C`: the GI50 with HeLa was over 50 µM; with HOS it was 8.8 µM.
Taken in the same sequence, the figures for `CCC[C@H]1O[C@H](COCc2ccccc2)[C@@H](OCc2ccccc2)[C@H](OCc2ccccc2)C1=O` were over 50 µM and over 50 µM.
For `CCC[C@@H]1O[C@H](COCc2ccccc2)[C@@H](OCc2ccccc2)[C@H](OCc2ccccc2)[C@@H]1O`, the GI50 with HeLa is 23.3 µM; with HOS, over 50 µM.
In the case of `CC(=O)O[C@@H]1[C@@H](OCc2ccccc2)[C@H](OC(C)=O)[C@@H](COCc2ccccc2)O[C@H]1Cc1ccccc1`, the GI50 was 5.4 µM with HeLa and 6.1 µM in the assay with HOS.
Taken in the same sequence, the figures for `O[C@@H]1[C@@H](OCc2ccccc2)[C@H](OCc2ccccc2)[C@@H](COCc2ccccc2)O[C@H]1c1ccccc1` were over 50 µM and over 50 µM.
Turning to `OCC[C@@H]1O[C@H](COCc2ccccc2)[C@@H](OCc2ccccc2)[C@H](OCc2ccccc2)[C@H]1O`, the GI50 in the assay with HeLa was found to be 30.2 µM; in the assay with HOS it was 39.7 µM.
Take `c1ccc(COC[C@H]2O[C@H]3C[C@H]3[C@@H](OCc3ccccc3)[C@@H]2OCc2ccccc2)cc1`: the GI50 with HeLa and in the assay on HOS was over 50 µM each time.
Consider `CC(=O)O[C@@H]1[C@@H](OC(C)=O)[C@H](Cc2ccccc2)O[C@H](COCc2ccccc2)[C@H]1OC(C)=O`, for which the GI50 in the assay on HeLa and in the assay with HOS was over 50 µM throughout.
Take `CCCCOC[C@H]1O[C@@H](CCC)C(=O)[C@@H](OCCCC)[C@@H]1OCCCC`: the GI50 in the assay with HeLa and with HOS was over 50 µM each time.
On to `CCCCOC[C@H]1O[C@@H](CCC)[C@H](O)[C@@H](OCCCC)C1OCCCC` (some centres undefined), for which the GI50 in the assay on HeLa and in the assay on HOS was over 50 µM throughout.
Take `O[C@@H]1[C@@H](OCc2ccccc2)[C@H](OCc2ccccc2)[C@@H](COCc2ccccc2)O[C@@H]1CC1CCCCC1`: the results for the GI50 with HeLa and in the assay with HOS were over 50 µM and 20.7 µM, respectively.
Consider `C=CC[C@@H]1O[C@H](COCc2ccccc2)[C@@H](OCc2ccccc2)[C@H](OCc2ccccc2)[C@H]1OCc1ccccc1`, for which the GI50 with HeLa and in the assay on HOS was over 50 µM throughout.
In the case of `CC[C@@H]1O[C@H](COCc2ccccc2)[C@@H](OCc2ccccc2)[C@H](OCc2ccccc2)[C@H]1O`, the values for the GI50 in the assay on HeLa and with HOS were 19.8 µM and 34.2 µM, respectively.
Taken in the same sequence, the figures for `CC[C@@H]1O[C@H](COCc2ccccc2)[C@@H](OCc2ccccc2)[C@H](OCc2ccccc2)C1=O` were over 50 µM and 4.3 µM.
Regarding `CC(=O)OC[C@H]1O[C@@H](Cc2ccccc2)[C@H](OC(C)=O)[C@@H](OCc2ccccc2)[C@@H]1OC(C)=O`, the GI50 in the assay on HeLa and with HOS was over 50 µM throughout.
As for `CCCCC[C@@H]1O[C@H](COCc2ccccc2)[C@@H](OCc2ccccc2)[C@H](OCc2ccccc2)C1=O`, the concentration for 50% growth inhibition (GI50) with HeLa and with HOS was over 50 µM throughout.
Turning to `O[C@@H]1[C@@H](OCc2ccccc2)[C@H](OCc2ccccc2)[C@@H](COCc2ccccc2)O[C@H]1CC1CCCCC1`, the figures for the GI50 in the assay with HeLa and in the assay on HOS were 9.5 µM and 4.4 µM, respectively.
For `C=CC[C@@H]1O[C@H](COCc2ccccc2)[C@@H](OCc2ccccc2)[C@H](OCc2ccccc2)[C@H]1O`, the GI50 in the assay with HeLa is 26.2 µM; in the assay with HOS, 44.1 µM.
Turning to `CCC[C@H]1O[C@H](COCc2ccc(F)cc2)[C@@H](OCc2ccc(F)cc2)[C@H](OCc2ccc(F)cc2)[C@H]1O`, the GI50 in the assay on HeLa was 5.6 µM; in the assay on HOS, over 50 µM.
On to `CC(C)C[C@@H]1O[C@H](COCc2ccccc2)[C@@H](OCc2ccccc2)[C@H](OCc2ccccc2)[C@@H]1O`, for which the GI50 in the assay on HeLa turned out to be 24.6 µM; with HOS, 26.3 µM.
Taken in the same sequence, the figures for `C[C@@H]1O[C@H](COCc2ccccc2)[C@@H](OCc2ccccc2)[C@H](OCc2ccccc2)[C@H]1O` were over 50 µM and over 50 µM.
Regarding `C[C@@H]1O[C@H](COCc2ccccc2)[C@@H](OCc2ccccc2)[C@H](OCc2ccccc2)C1=O`, the GI50 with HeLa and in the assay with HOS was over 50 µM throughout.
Turning to `CC[C@@H]1O[C@H](COCc2ccccc2)[C@@H](OCc2ccccc2)[C@H](OCc2ccccc2)[C@H]1OC(C)=O`, the GI50 with HeLa and in the assay on HOS was over 50 µM each time.
Consider `CCC[C@@H]1O[C@H](COCc2ccccc2)[C@@H](OCc2ccccc2)[C@H](OCc2ccccc2)C1=O`, for which the GI50 in the assay with HeLa and in the assay on HOS was over 50 µM in each case.
Turning to `CC(C)C[C@@H]1O[C@H](COCc2ccccc2)[C@@H](OCc2ccccc2)[C@H](OCc2ccccc2)C1=O`, the GI50 in the assay with HeLa and in the assay with HOS was over 50 µM each time.
Take `CC(C)C[C@H]1O[C@H](COCc2ccccc2)[C@@H](OCc2ccccc2)[C@H](OCc2ccccc2)[C@H]1O`: the GI50 with HeLa was found to be 43.9 µM; in the assay on HOS it was 44.5 µM.
Taken in the same sequence, the figures for `CC(C)C[C@@H]1O[C@H](COCc2ccccc2)[C@@H](OCc2ccccc2)[C@H](OCc2ccccc2)[C@H]1O` were over 50 µM and 45.2 µM.
As for `CCC[C@@H]1O[C@H](COCc2ccc(F)cc2)[C@@H](OCc2ccc(F)cc2)[C@H](OCc2ccc(F)cc2)[C@H]1O`, the values for the GI50 in the assay with HeLa and in the assay with HOS were 12.3 µM and 17.2 µM, respectively.

Values taken from ChEMBL document CHEMBL1139968, “Cytotoxic effects of C-glycosides in HOS and HeLa cell lines” (2007).
